Experimental data: US20100120700A1, “METHODS AND COMPOSITIONS FOR TREATING CERVICAL CANCER” (priority 2000, published 2010)
Where “and” joins values, the source holds several entries; their conditions need not be identical. Equal entries are not always repeated.

Columns and labels:
[1] = test system: DLG-6 #333.1 domain 1; test: G assay PDZ-PL binding; design: species or system human; settings: peptide 10 uM, protein 5
Protocol: (§1) (1) A PDZ-domain polypeptide is bound to a surface, e.g. a protein binding surface. In a preferred embodiment, a GST/PDZ fusion protein containing one or more PDZ domains is bound to a polystyrene 96-well plate. […] In one embodiment, the GST/PDZ fusion protein is bound via an anti-GST antibody that is coated onto the 96-well plate. Adequate binding to the plate can be achieved when: • a. 100 uL per well of 5 ug/mL goat anti-GST polyclonal antibody (Pierce) in PBS is added to a polystyrene 96-well plate (e.g., Num Polysorb) at 4° C. for 12 hours. • b. The plate is blocked by addition of 200 uL per well of PBS/BSA for 2 hours at 4° C. • c. The plate is washed 3 times with PBS. • d. 50 uL per well of 5 ug/mL GST/PDZ fusion protein) or, as a negative control, GST polypeptide alone (i.e. not a fusion protein) in PBS/BSA is added to the plate for 2 hours at 4° C. • e. The plate is again washed 3 times with PBS. […]
(§2) (3) The binding of the biotinylated peptide to the GST/PDZ fusion protein surface can be detected using a variety of methods and detectors known to one of skill in the art. In one embodiment, 100 uL per well of 0.5 ug/mL streptavidin-horse radish peroxidase (HRP) conjugate dissolved in BSA/PBS is added and allowed to react for 20 minutes at 4° C. The plate is then washed 5 times with 50 mM Tris pH 8.0 containing 0.2% Tween 20, and developed by addition of 100 uL per well of HRP-substrate solution (TMB, Dako) for 20 minutes at room temperature (RT). The reaction of the HRP and its substrate is terminated by addition of 100 uL per well of 1M sulfuric acid, and the absorbance of each well of the plate is read at 450 nm.
(§3) (4) Specific binding of a PL peptide and a PDZ domain polypeptide is determined by comparing the signal from the well(s) in which the PL peptide and PDZ domain polypeptide are combined, with the background signal(s). The background signal is the signal found in the negative control(s). Typically a specific or selective reaction will be at least twice background signal, more typically more than 5 times background, and most typically 10 or more times the background signal. In addition, a statistically significant reaction will involve multiple measurements of the reaction with the signal and the background differing by at least two standard errors, more typically four standard errors, and most typically six or more standard errors. Correspondingly, a statistical test (e.g. a T-test) comparing repeated measurements of the signal with-repeated measurements of the background will result in a p-value<0.05, more typically a p-value<0.01, and most typically a p-value<0.001 or less. As noted, in an embodiment of the “G” assay, the signal from binding of a given PL peptide to immobilized (surface bound) GST polypeptide alone is one suitable negative control (sometimes referred to as “B 1”). Because all measurement are done in multiples (i.e. at least duplicate) the arithmetic mean (or, equivalently, average.) of several measurements is used in determining the binding, and the standard error of the mean is used in determining the probable error in the measurement of the binding. The standard error of the mean of N measurements equals the square root of the following: the sum of the squares of the difference between each measurement and the mean, divided by the product of (N) and (N−1). Thus, in one embodiment, specific binding of the PDZ protein to the platebound peptide is determined by comparing the mean signal (“mean S”) and standard error of the signal (“SE”) for a particular PL-PDZ combination with the mean B1.
(§4) For convenience, the assay conditions described in this section are referred to as the “G’ assay” and the “G” assay,” with the specific conditions described in the preceding section on G assays being referred to as the “G° assay.” The “G′ assay” is identical to the “G° assay” except at step (2) the peptide concentration is 10 uM instead of 20 uM. […]

[2] = test system: FLJ00011 domain 1; test: G assay PDZ-PL binding; design: species or system human; settings: peptide 10 uM, protein 5
Protocol: as §1, §2, §3, §4

[3] = test system: NSP #268.2 domain 1; test: G assay PDZ-PL binding; design: species or system human; settings: peptide 10 uM, protein 5
Protocol: as §1, §2, §3, §4

[4] = target: PSD95 (PDZ2) (Homo sapiens, UniProt P78352); settings: E6 peptide titrated against constant GST-PDZ; PSD95 (2)
Protocol: (§5) (1) A GST/PDZ fusion protein, as well as GST alone as a negative control, are bound to a surface (e.g., a 96-well plate) and the surface blocked and washed as described supra for the “G” assay.
(§6) (2) 50 uL per well of a solution of biotinylated PL peptide (e.g. as shown in TABLE 2) is added to the surface in increasing concentrations in PBS/BSA (e.g. at 0.1 uM, 0.33 uM, 1 uM, 3.3 uM, 10 uM, 33 uM, and 100 uM). In one embodiment, the PL peptide is allowed to react with the bound GST/PDZ fusion protein (as well as the GST alone negative control) for 10 minutes at 4° C. followed by 20 minutes at 25° C. The plate is washed 3 times with ice cold PBS to remove unbound labeled peptide.
(§7) (3) The binding of the PL peptide to the immobilized PDZ-domain polypeptide is detected as described supra for the “G” assay.
(§8) (4) For each concentration of peptide, the net binding signal is determined by subtracting the binding of the peptide to GST alone from the binding of the peptide to the GST/PDZ fusion protein. The net binding signal is then plotted as a function of ligand concentration and the plot is fit (e.g. by using the Kaleidagraph software package curve fitting algorithm; Synergy Software) to the following equation, where “Signal[ligand]” is the net binding signal at PL peptide concentration “[ligand],” “Kd” is the apparent affinity of the binding event, and “Saturation Binding” is a constant determined by the curve fitting algorithm to optimize the fit to the experimental data: […]

[5] = test system: SAST1 KIAA; settings: E6 peptide titrated against constant GST-PDZ
Protocol: as §5, §6, §7, §8

[6] = target: PSD95 (PDZ1-3) (Homo sapiens, UniProt P78352); settings: E6 peptide titrated against constant GST-PDZ; PSD95 (1-3)
Protocol: as §5, §6, §7, §8

[7] = target: Magi3 (PDZ1) (Homo sapiens, UniProt Q5TCQ9); settings: E6 peptide titrated against constant GST-PDZ; Magi3 (1)
Protocol: as §5, §6, §7, §8

[8] = target: Magi1C (PDZ2) (Homo sapiens, UniProt Q96QZ7); settings: E6 peptide titrated against constant GST-PDZ; Table 10 prints Magi1C (1)
Protocol: as §5, §6, §7, §8

Chain of FLJ00011 domain 1 (as listed by the source): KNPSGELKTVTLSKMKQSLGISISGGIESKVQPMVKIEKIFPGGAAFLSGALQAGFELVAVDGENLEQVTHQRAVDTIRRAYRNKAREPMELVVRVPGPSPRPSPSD
Chain of Magi3 (PDZ1) (Q5TCQ9 401-502): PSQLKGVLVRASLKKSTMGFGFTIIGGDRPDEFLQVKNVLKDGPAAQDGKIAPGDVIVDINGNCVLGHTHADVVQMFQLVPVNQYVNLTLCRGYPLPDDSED
Chain of Magi1C (PDZ2) (Q96QZ7 463-566): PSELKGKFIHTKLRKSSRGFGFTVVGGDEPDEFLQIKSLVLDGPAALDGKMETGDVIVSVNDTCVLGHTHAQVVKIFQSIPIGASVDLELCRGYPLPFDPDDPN

Substance: 20 mer peptide corresponding to the C-terminus of HPV16 E6 (PDZ ligand), biotinylated in binding assays; ends SSRTRRETQL (SEQ ID NO: 13) [HPV E6 #16]
- Ave OD ([1]; A450 nm): 0.3495
- OD S/N ([1]; vs GST only well): 2.04
- Ave OD ([2]; A450 nm): 0.423 and 0.8185
- OD S/N ([2]; vs GST only well): 2.90 and 3.97
- Ave OD ([3]; A450 nm): 0.724
- OD S/N ([3]; vs GST only well): 2.58
- EC50 [4]: 6.8 µM
- EC50 [5]: 580 nM
- EC50 [6]: 1000 nM
- EC50 [7]: 310 nM
- EC50 [8]: 56 nM
